Source: patent publication US20130045484A1, “METHODS AND KITS FOR DETERMINING THE TOXICITY OF AN AGENT” (priority 2010, published 2013)
Counter-ions that a name gives are not always drawn. Like-named read-outs stand apart in the source and are kept apart here.

Experiments:
HEK 293 cells = assay: Firefly Luciferase Bioluminescent ATP cell viability assay; assay type: cell-based, human; details: for ATP response (cytotoxicity): phenformin 250 μg/ml, MMS 50 μg/ml, doxorubicin 1 μg/ml
Method: The assay was carried out in 96-well cluster plates on the same cell containing sample(s) as the p53R2 Renilla Luciferase Reporter Gene Assay. Traditionally bioluminescent ATP quantification methods use firefly luciferase to quantify ATP in the presence of inorganic magnesium ions and the substrate luciferin. The ATP assay described here uses a recombinant luciferase from a gene isolated from the Pennsylvania Firefly (Photuris pennsylvania). Following Renilla luciferase gene reporter activity quantification, firefly luciferase activity was measured in each well using the Cell-Titer Glo Luciferase ATP Quantification Assay Kit in accordance with the kit manufacturer's instructions. Briefly, the enzyme substrate was equilibrated to room temperature and reconstituted with the assay buffer. 100 μl of this reagent was added to cells which quenched the Renilla luciferase reaction and liberated the cellular contents by cellular lysis. […] It is based on the quantitative measurement of ATP which indicates the absolute number of metabolically active cells.

p53R2 (RE) = tested on: p53R2 (RE)
Method: Constructs were transiently transfected into human HEK 293 cells using a lipid-based commercially available reagent (FuGENE HD Transfection Reagent, Roche Applied Science). Transfections were carried out following the manufacturer's instructions. Briefly, freshly passaged cells (20,000/well) were dispensed into Greiner Bio-One tissue-culture treated μ-clear (clear base), white, sterile, 96-well cluster plates and incubated overnight (37° C., 95% humidity, 5% CO2) in antibiotic-free media. Cells were transfected (100 ng DNA/well; 5 μl transfection complex/well) with pGL4.70 [hRLuc], p53R2 (RE) pGL4.70 [hRLuc], pGL4.70 MinP [hRLuc], or p53R2 (RE) pGL4.70 MinP [hRLuc] for 24 h, in antibiotic-free media. Several FuGENE HD Transfection Reagent: DNA ratios (3:2-8:2 in the final complex) were evaluated in order to determine the optimal level of transient transfection.
Renilla luciferase activity was measured using the ViviRen Luciferase Live Cell Substrate following the Manufacturer's instructions. Briefly, the ViviRen substrate (60 mM; 20 μl) was diluted 1:50 with complete EMEM at room temperature. 10 μl was added to each culture well (to give a final concentration of 60 μM in each well containing cells to be tested). Microtitre plates were incubated for two minutes at room temperature before measuring luminescence on a Tecan Ultra (Tecan Corporation) in luminescence mode, integrating for 100 ms. Alternatively luminescence can be measured on a LEADseeker multi-modality instrument in luminescence mode (GE Healthcare).

caspase-3 = assay: Caspase-3 (apoptosis) Assay; assay type: cell-based, human; details: for Mean Apoptotic Index: mean Caspase-3 response (405 nm) ÷ mean ATP response × 10^8, mannitol 1 mg/ml, doxorubicin 1 μg/ml, MMS 50 μg/ml, phenformin 250 μg/ml
Method: The assay was carried out using the same cell containing sample(s) as the p53R2 Renilla Luciferase Reporter Gene, the Firefly Luciferase Bioluminescent ATP and the superoxide assays. Once again, all of the assays were performed in 96-well cluster plates. Activation of caspase-3 plays a central role in the execution-phase of apoptosis. Thus, the caspase-3 assay will provide useful information on the mechanism of cellular toxicity. Following SOD measurement, caspase-3 was measured on each cellular sample in accordance with the Caspase-3 Assay Kit manufacturer's instructions. Briefly, the colorimetric assay is based on the hydrolysis of the peptide substrate acetyl-Asp-Glu-Val-Asp p-nitroanilide (Ac-DEVD-pNA) by caspase-3, resulting in the release of the p-nitroaniline (pNA) moiety which can be measured at 405 nm.
For the assay, cellular sample lysates (5 μl) were added to a reaction mixture containing caspase-3 substrate (Ac-DEVD-pNA, 95 μl) and samples were incubated for 2 h at 37° C. Absorbance was measured at 405 nm using a 96-well microtitre plate reader.

superoxide dismutase = assay: Superoxide Dismutase (SOD) (Oxidative Stress) Assay; assay type: cell-based, human; details: mean superoxide dismutase response (450 nm) ÷ mean ATP response × 10^7; HEK 293; mannitol 1 mg/ml, doxorubicin 1 μg/ml, MMS 50 μg/ml, phenformin 250 μg/ml
Method: The assay was conducted using the same cell containing sample(s) as the p53R2 Renilla Luciferase Reporter Gene and the Firefly Luciferase Bioluminescent ATP assays. The assays were performed in 96-well cluster plates.
On completion of ATP quantification, SOD was measured on each cellular sample following the SOD assay kit manufacturer's instructions. Briefly, the assay method is based on a water-soluble tetrazolium salt, WST-1 (2-(4-Iodophenyl)-3-(4-nitrophenyl)-5-(2,4-disulfophenyl)-2H-tetrazolium, monosodium salt) that produces a colourimetric formazan dye upon reduction with a superoxide anion which can be measured spectrophotometrically. The rate of the reduction with the superoxide anion is linearly related to […] xanthine oxidase (XO) activity. Thus, cellular samples (20 μl) were added to a reaction mixture (220 μl) containing WST-1 and XO and incubated for 20 mins at 37° C. Absorbance was measured at 450 nm using a 96-well microtitre plate reader.

Salmonella = details: McCann et al., 1975, PNAS 72, 5135-5139; cited from earlier work
[1] = FIG. 16, apoptosis values alone, HEK 293

| SMILES | ATP response (cytotoxicity) (HEK 293 cells; FIG. 10e, 8:2 transfection) | ATP response (cytotoxicity) (HEK 293 cells; FIG. 11e, 7:2 transfection) | cytotoxicity based upon ATP levels (HEK 293 cells; FIGS. 10 and 11) | induction of Renilla luciferase (p53R2 (RE)) | caspase 3 activities (caspase-3; [1]) | Mean Apoptotic Index (caspase-3; HEK 293) | Mean Stress Index (superoxide dismutase) | genotoxicity characterization (Salmonella) | cytotoxicity based upon ATP levels (HEK 293 cells) | caspase 3 activities (caspase-3) |
| --- | --- | --- | --- | --- | --- | --- | --- | --- | --- | --- |
| COc1cccc2c1C(=O)c1c(O)c3c(c(O)c1C2=O)C[C@@](O)(C(=O)CO)C[C@@H]3O[C@H]1C[C@H](N)[C@H](O)[C@H](C)O1 [Doxorubicin, doxorubicin hydrochloride] | no reduction | no reduction | not cytotoxic | significant induction | comparable | 3.43 | 0.96 | highly |  |  |
| OC[C@@H](O)[C@@H](O)[C@H](O)[C@H](O)CO [Mannitol, mannitol] |  |  |  | no induction |  | 1.04 | 1.22 |  |  |  |
| COS(C)(=O)=O [Methylmethane sulfonate, methylmethane sulfonate] |  |  |  | less induction |  |  |  | moderately | not cytotoxic | comparable |
| [H]/N=C(/N)N/C(=N/[H])NCCc1ccccc1 [Phenformin, phenformin hydrochloride] |  |  |  | no induction | comparable |  |  |  |  |  |
